Columns and labels:
[1] = Evaporation time of the liquid brought into contact with living human hands; assay type: physicochemical; conditions: liquid applied to living human hands/skin; averages; 1 ml or 2 ml
Experimental: For an HFE having a vapor pressure at 25° C. and atmospheric pressure of 28,000 Pa (280 mbar), the evaporation time when 1 ml is brought into contact with living human hands was about 4 seconds; for an HFE having a vapor pressure at 25° C. and atmospheric pressure of 14,000 Pa (140 mbar), the evaporation time was 7 seconds; for an HFE having a vapor pressure at 25° C. and atmospheric pressure of 2100 Pa (21 mbar), the evaporation time was about 15 seconds; and for an HFE having a vapor pressure at 25° C. and atmospheric pressure of 69,800 Pa, the evaporation time was about 1 s.
The evaporation times indicated above are averages for 2 ml applied to the skin. They depend in particular on the temperature of the substrate to which they are applied and can vary between individuals, for application to the skin and mucosae, according to the body temperature and room temperature.

[2] = Vapor pressure at 25° C. and atmospheric pressure

Compound	evaporation time on the hands [1]	vapor pressure at 25° C. and atmospheric pressure [2]
ethoxynonafluorobutane	about 7 s	–
COC(F)(F)C(F)(F)C(F)(F)F [methoxyheptafluoropropane]	about 1 s	69,800 Pa
methoxynonafluorobutane	about 4 s	28,000 Pa

Reference: patent publication US20060233714A1, “Use of a volatile liquid at atmospheric pressure and ambient temperature for the production of pharmaceutical or biological compositions” (priority 2003, published 2006)
